The values below are quoted from earlier work in patent publication US20070003621A1, “Dosage forms for movement disorder treatment” (Spherics, Inc., priority 2005, published 2007).

Molecules are shown by their SMILES.

The conditions of this data set: doses of 400 mg per day.

As to `C[C@@](Cc1ccc(O)c(O)c1)(NN)C(=O)O` [carbidopa], the adverse effects result is recorded as “fails to elicit adverse effects”.
